Data published in patent US10421723B2, “2,3-diacylated, 2- and 3-mono-acylated alkylated imino sugars exhibiting glucosidase inhibition and their method of use” (priority 2016, dated 2019).

What was measured:
target viruses = settings: cited from earlier work
[1] = Stability and conversion in simulated intestinal fluids; type: in vitro ADME; settings: 4 h, 5 μM, 37° C.
Protocol: The stability of exemplary compounds of the present invention and their conversion to active derivatives in simulated intestinal fluids is evaluated. The working solutions of test compounds and control compound chlorambucil were prepared in DMSO at the concentration of 500 μM. 2 μL of the working solution and 198 μL of simulated intestinal fluids were added into centrifuge tubes to achieve a final concentration of 5 μM, and incubated at 37° C. water bath with shaking at approximately 60 rpm. One of the centrifuge tubes was taken at designated time points including 0, 1, 2, 3 and 4 hours. The assay was performed in duplicate. The reaction was stopped by adding 5 volumes of cold quench solution (acetonitrile containing internal standards (IS, 100 nM Alprazolam, 500 nM Labetalol and 2 μM Ketoprofen)) to the spiked simulated intestinal fluids samples at the appointed time points. Another time 0 samples of parent compound were also prepared, and they were used to calculate the conversion percentages of prodrugs to parent compound (used as T0-2). Samples were vortexed for 2 minutes and centrifuged at 20,000 g for 15 minutes at 4° C. to precipitate protein. And then 50 μL of the supernatant was transferred to a new 96-well plate with 100 μL quench solution and 100 μL water for LC-MS/MS analysis.

[2] = Stability and conversion in simulated gastric fluid; type: in vitro ADME; settings: 4 h, 37° C.
Protocol: The stability of exemplary compounds of the present invention and their conversion to their active derivatives in simulated gastric fluid is evaluated. The working solutions of test compounds and control compound erythromycin were prepared in DMSO at the concentration of 500 μM. 2 μL of the working solution and 198 μL of simulated gastric fluids were added into centrifuge tubes to achieve a final concentration of […] incubated at 37° C. water bath with shaking at approximately 60 rpm. One of the centrifuge tubes was taken at designated time points including 0, 30, 60, 90 and 120 minutes. The assay was performed in duplicate. The reaction was stopped by adding 5 volumes of cold quench solution (acetonitrile containing internal standards (IS, 100 nM Alprazolam, 500 nM Labetalol and 2 μM Ketoprofen)) to the spiked simulated gastric fluids samples at the appointed time points. Another time 0 samples of parent compound were also prepared, and they were used to calculate the conversion percentages of prodrugs to parent compound (used as T0-2). Samples were vortexed for 2 minutes and centrifuged at 20,000 g for 15 minutes at 4° C. to precipitate protein. And then 50 μL of the supernatant was transferred to a new 96-well plate with 100 μL quench solution and 100 μL water for LC-MS/MS analysis.

Row | Compound | concentrations to achieve EC50 values in tissue culture against their target viruses (target viruses) | Stability in Intestinal Fluid, Remaining [1] [%] | Stability in Gastric fluids, Remaining [2] [%]
1 | CCCC(=O)O[C@H]1CN2CC[C@H](O)[C@@H]2[C@@H](O)[C@@H]1O [Celgosivir] | near millimolar | – | –
2 | CC(NC(=O)OC(C)(C)C)C(=O)OC1C(O)CN(CCCCCCN(C(=O)NC(C)(C)C)C2CCCCC2)C(CO)C1O (stereo not shown) [XXX(a)] | – | 30.7 | 81.1
3 | CCCCOC(=O)OC1CN(CCCCCCN(C(=O)NC(C)(C)C)C2CCCCC2)C(CO)C(O)C1OC(=O)OCCCC (stereo not shown) [XXVII(a)] | – | 65.7 | 93
4 | CC(C)COC(=O)OC1CN(CCCCCCN(C(=O)NC(C)(C)C)C2CCCCC2)C(CO)C(O)C1O (stereo not shown) [XXVIII(b)] | – | 70.9 | 89.2
5 | CCCCN1C[C@H](O)[C@@H](O)[C@H](O)[C@H]1CO [NBDNJ, N-butyl-DNJ] | near millimolar | – | –
6 | CCCCOC(=O)OC1CN(CCCCCCN(C(=O)NC(C)(C)C)C2CCCCC2)C(CO)C(O)C1O (stereo not shown) [XXVIII(a)] | – | 62.7 | 98.1
